Laboratory results reported in patent US20180221435A1, “ITCH TREATMENT USING A COMBINATION OF NEUROKININ-1, GASTRIN RELEASING PEPTIDE, AND GLUTAMATE RECEPTOR ANTAGONISTS” (The Regents of the University of California, priority 2013, published 2018).
Where two headings read alike, the source gives them in different places.

What was measured:
[1] = at the dose and in the condition of the same Table I line; cited from earlier work
[2] = test system: superficial dorsal horn neurons; assay: In vivo single-unit recording, id chloroquine-evoked firing, spinal superfusion of antagonists; set-up: species or system mice
Procedure: (§1) The single-unit recording from the lumbar spinal cord was conducted as previously detailed [Akiyama T et al., Journal of neurophysiology 102(4):2176-2183 (2009); Akiyama T et al., The Journal of neuroscience: the official journal of the Society for Neuroscience 29(20):6691-6699 (2009)]. Anesthesia was induced by sodium pentobarbital (60 mg/kg ip) and maintained by supplemental injections (10-20 mg/kg/hr). A gravity-driven perfusion system allowed artificial cerebrospinal fluid (Krebs: 117 mM NaCl, 3.6 mM KCl, 2.5 mM CaCl2, 1.2 mM MgCl2, 1.2 mM NaH2PO4, 25 mM NaHCO3 and 11 mM glucose which was equilibrated with 95% 02 and 5% CO2 at 37° C.) to be superfused continually over the exposed lumbosacral spinal cord [Akiyama T et al., PloS one 6(7):e22665 (2011)]. A tungsten microelectrode recorded single-unit activity in the lumbar spinal cord. A chemical search strategy [Akiyama T et al., Journal of neurophysiology 102(4):2176-2183 2009; Akiyama T et al., The Journal of neuroscience: the official journal of the Society for Neuroscience 29(20):6691-6699 (2009)] was used to identify and isolate chloroquine-responsive units. Our search strategy was intended to maximize the chance of isolating a chloroquine-responsive neuron; it was assumed that such neurons either gave rise to ascending projections, or served as interneurons in segmental scratch-reflex circuitry, and no attempt was presently made to distinguish between these possibilities.
Briefly, a small (˜0.25 μl) intradermal (id) microinjection of chloroquine (100 μg/μl) was made in the ventral hindpaw and a spontaneously active unit in the superficial lumbar dorsal horn (depth<300 um) was isolated. After the spontaneous activity had waned, chloroquine (1 μl, 100 μg/μl) was injected again at the same site through the same needle. […] Responses were usually recorded for at least 30 minutes, although in many cases unit firing declined over a shorter period.
Action potentials were recorded to a computer and counted using Chart software (AD Instruments, Colorado Springs Colo.) and Spike2 software (CED Instruments). Ongoing responses elicited by chloroquine, histamine, or AITC were averaged at 20-second intervals before, during and after the antagonist application, and compared by one way repeated-measures analysis of variance (ANOVA) followed by post-hoc Bonferroni test, with p<0.05 set as significant. The mean firing rate was calculated over a 20-second period 40 seconds after the antagonist application, and compared by one way ANOVA followed by post-hoc Bonferroni test, with p<0.05 set as significant. The criterion for decrease in ongoing firing was >70% decrease below the ongoing activity elicited by pruritogen over a 20-second period 40 seconds after the antagonist application. Mean peak responses elicited by noxious pinch were compared by one way repeated-measures ANOVA followed by post-hoc Bonferroni test, with p<0.05 set as significant. At the end of each experiment, an electrolytic lesion was made at the spinal cord recording site. The spinal cord was postfixed in 10% buffered formalin, cut in 50 μm frozen sections, and examined under the light microscope to identify lesions.

[3] = test system: superficial dorsal horn neurons; assay: In vivo single-unit recording, id histamine-evoked firing, spinal superfusion of antagonists; set-up: species or system mice; conditions: for Percentages of dorsal horn units that exhibited a decrease of 70% or more in firing rate following spinal superfusion of antagonists: id histamine-evoked firing, superfusion 1 min, RC-3095 20 μM, L-733060 200 μM, CNQX 100 μM
Procedure: (§2) Akiyama T et al., The Journal of neuroscience: the official journal of the Society for Neuroscience 29(20):6691-6699 (2009)]. Anesthesia was induced by sodium pentobarbital (60 mg/kg ip) and maintained by supplemental injections (10-20 mg/kg/hr). […] A tungsten microelectrode recorded single-unit activity in the lumbar spinal cord. A chemical search strategy [Akiyama T et al., Journal of neurophysiology 102(4):2176-2183 2009; […] Following mechanical stimulation, histamine (50 μg) was injected id within the same receptive field at a different location via a separate injection cannula. Following the id histamine injection, we tested the effects of antagonists for the receptors of NK1, GRP, or AMPA/kainate in the same manner as described above for chloroquine. […] Following the AITC application, we tested the effects of the NK-1 receptor antagonist, the AMPA/kainate receptor antagonist, or a combination of both antagonists in the same manner as described above for chloroquine. Action potentials were recorded to a computer and counted using Chart software (AD Instruments, Colorado Springs Colo.) and Spike2 software (CED Instruments). […] Mean peak responses elicited by noxious pinch were compared by one way repeated-measures ANOVA followed by post-hoc Bonferroni test, with p<0.05 set as significant. At the end of each experiment, an electrolytic lesion was made at the spinal cord recording site.

[4] = test system: superficial dorsal horn neurons; assay: In vivo single-unit recording, topical AITC-evoked firing, spinal superfusion of antagonists; set-up: species or system mice
Procedure: as §2

[5] = test system: superficial dorsal horn neurons; assay: In vivo single-unit recording, noxious pinch-evoked responses, spinal superfusion of antagonists; set-up: species or system mice; conditions: pinch at end of 1 min superfusion
Procedure: Akiyama T et al., The Journal of neuroscience: the official journal of the Society for Neuroscience 29(20):6691-6699 (2009)]. Anesthesia was induced by sodium pentobarbital (60 mg/kg ip) and maintained by supplemental injections (10-20 mg/kg/hr). […] A tungsten microelectrode recorded single-unit activity in the lumbar spinal cord. A chemical search strategy [Akiyama T et al., Journal of neurophysiology 102(4):2176-2183 2009; […] Units were classified as wide dynamic range (WDR)-type if they responded in a graded manner to innocuous mechanical stimulation (brushing, cotton wisp) and noxious pinch, or nociceptive-specific (NS) if they responded to noxious pinch (and to the 55 mN von Frey stimulus) but not to the cotton wisp or brush stimuli. […] Akiyama T et al., The Journal of neuroscience: the official journal of the Society for Neuroscience 29(20):6691-6699 (2009)]. […] At the end of the antagonist superfusion, the noxious pinch stimulus was delivered again at the same site on the receptive field. Thirty minutes later, the noxious pinch stimulus was delivered in the same manner. Action potentials were recorded to a computer and counted using Chart software (AD Instruments, Colorado Springs Colo.) and Spike2 software (CED Instruments). […]

[6] = test system: superficial dorsal horn neurons; assay: Baseline activity of superficial dorsal horn neurons before and after antagonist application; type: in vivo, mice; conditions: ± SEM
Procedure: as §1
There was no significant effect of any of the antagonists on the baseline activity of superficial dorsal horn neurons that were subsequently show to respond to pruritogens. […] Values prior to, and after administration of each antagonist individually or in combination, are as follows. NK-1 antagonist L-733060: pre-application 0.88 Hz±0.23 (SEM), post-antagonist 0.72 Hz±0.19 (n=10). GRPR antagonist RC-3095: pre-application 0.54 Hz±0.54, post-antagonist: 0.53 Hz±0.53 (n=4). CNQX: pre-application 0.53 Hz±0.14, post-antagonist 0.64 Hz±0.21 (n=22). CNQX+L-733060: pre-application 0.52 Hz±0.17, post-antagonists 0.43 Hz±0.11 (n=26). CNQX+L-733060+RC-3095: pre-application 0.14 Hz±0.06, post-antagonists 0.17 Hz±0.06 (n=9).

[7] = test system: histamine-evoked scratching; conditions: intrathecal L-733060 22.7 nmol or RC-3095 0.3 nmol, data adapted from Akiyama et al. 2013, cited from earlier work
DRG cells = assay: Calcium imaging of DRG cells; conditions: 898 DRG cells; chloroquine 300 μM, histamine 100 μM, 30 sec; ratio increase more than 10%

In the case of `COc1ccc(OC(F)(F)F)cc1CN[C@H]1CCCN[C@H]1c1ccccc1` [AV608], the “Side Effects” value [1] is given as “well tolerated”.

For `C[C@@H](O[C@H]1OCCN(Cc2n[nH]c(=O)[nH]2)[C@H]1c1ccc(F)cc1)c1cc(C(F)(F)F)cc(C(F)(F)F)c1` [Aprepitant], the “Side Effects” value [1] is given as “generally mild”.

In the case of `COc1ccc(-n2nnnc2C(F)(F)F)cc1CN[C@H]1CCCN[C@H]1c1ccccc1` [GR205171], the “Side Effects” value [1] is given as “well-tolerated”.

For `CC(=O)N1CCN([C@H]2CCN(C(=O)N(C)[C@H](C)c3cc(C(F)(F)F)cc(C(F)(F)F)c3)[C@@H](c3ccc(F)cc3C)C2)CC1` [GW679769], the “Side Effects” value [1] is listed as “well tolerated,”.

In the case of `FC(F)(F)c1cc(CO[C@H]2CCCN[C@H]2c2ccccc2)cc(C(F)(F)F)c1` [L733060], the “chloroquine-evoked firing compared to vehicle superfusion” value ([2]; 40-60 s of superfusion, normalized firing, vs vehicle) is reported as “did not produce a significant reduction in firing compared to vehicle superfusion”, the “chloroquine-evoked firing in NS cells” value ([2]; NS units, vs vehicle) is reported as “but not NS cells” and the “chloroquine-evoked firing in WDR cells” value ([2]; WDR units, vs vehicle) is reported as “significantly reduced”. The “chloroquine-evoked firing, effect of spinal superfusion” value ([2]; relative to chloroquine-evoked response prior to spinal superfusion) was “significantly attenuated after the cessation of superfusion”, the “histamine-evoked response of NS units” value ([3]; NS units, vs vehicle) was “failed to reduce” and the “histamine-evoked response of WDR units” value ([3]; WDR units, vs vehicle) was “failed to reduce”. For the same molecule, the “histamine-evoked firing, effect of spinal superfusion” value ([3]; all units) was “not significantly different from vehicle”, the “Percentages of dorsal horn units that exhibited a decrease of 70% or more in firing rate following spinal superfusion of antagonists” value [3] was 33% (6/18) and the “Percentages of dorsal horn units that exhibited a decrease of 70% or more in firing rate following spinal superfusion of antagonists” value ([3]; listed as NK-1 antagonist) was 33%. The “AITC-evoked firing, effect of spinal superfusion” value ([4]; topical AITC 75%) was “numerically reduced”, the “Percentages of dorsal horn units that exhibited a decrease of 70% or more in firing rate following spinal superfusion of antagonists” value ([4]; topical AITC-evoked firing, superfusion 1 min, L-733060 200 μM, CNQX 100 μM) was 22% (2/9) and the “noxious pinch-evoked response, effect of spinal superfusion” value [5] was “not reduced”. For the same molecule, the “baseline neuronal firing rate, post-antagonist” value ([6]; averaged over 1 min following antagonist application) was 0.72 Hz, the “baseline neuronal firing rate, pre-application” value ([6]; averaged over 1 min prior to antagonist application) was 0.88 Hz and the “histamine-evoked scratching (scratch bouts/30 minutes)” value ([7]; listed as NK-1 antagonist) was “neither the NK-1 nor the GRPR antagonist attenuated”. For the same molecule, the “histamine-evoked scratching (scratch bouts/30 minutes)” value ([7]; listed as NK-1 receptor antagonist) was “not affected”.

For `CC(=O)N1N=C(c2ccc(N)cc2)c2cc3c(cc2C[C@H]1C)OCO3` [Talampanel], the “Side Effects” value [1] is given as “Mild (fatigue,”.

For `O=c1[nH]c2cc(C(F)(F)F)c(N3CCOCC3)cc2n(CP(=O)(O)O)c1=O` [ZK 200775], the “Side Effects” value [1] is listed as “Sedation,”.

For `CCN(CC)CCCC(C)Nc1ccnc2cc(Cl)ccc12` (stereo not drawn) [chloroquine], the “percentage of DRG cells imaged that responded” value (DRG cells) was 8.4%.

In the case of `NCCc1c[nH]cn1` [histamine], the “percentage of DRG cells imaged that responded” value (DRG cells) is reported as 12.9%.
